Experimental findings from patent publication US20220000860A1, “COMPOUNDS, COMPOSITIONS, AND METHODS FOR TREATING HUMAN IMMUNODEFICIENCY VIRUS” (OYAGEN, INC., priority 2017, published 2022) are described below.

Some results are limits rather than exact numbers.

The term IC50 denotes the concentration at which inhibition is half-maximal. The term EC50 denotes the concentration giving half of the maximal effect. For orientation: EC90 means the concentration needed for an effect of 90%.

One series concerns PBMCs. Put plainly: PBMC Acute Infection, cytotoxicity (CC50/CC90). The format is cell-based. The protocol: (§1) PHA-stimulated cells from at least two normal donors were pooled (i.e. mixed together), diluted in fresh medium to a final concentration of 1×10^6 cells/mL, and plated in the interior wells of a 96-well round bottom microplate at 50 μL/well (5×10^4 cells/well). Pooling of mononuclear cells from more than one donor was used to minimize the variability observed between individual donors in quantitative and qualitative differences in HIV infection and overall response to the PHA and IL-2 of primary lymphocyte populations. Each plate contained virus control wells (cells plus virus) and experimental wells (drug plus cells plus virus) of either 00KE_KER2008 (Subtype A), IIIB (Subtype B), or 98US_MSC5016 (Subtype C). Test drug dilutions were prepared at a 2×concentration and 100 μL of each concentration was placed in appropriate wells. Fifty μL of a predetermined dilution of virus stock was placed in each test well (final MOI≅0.1). After this period, cell-free supernatant samples were collected for analysis of reverse transcriptase (RT) activity with an RT assay. […] In the Table below SI50=CC50/EC50 and SI90=CC90/EC90.

The target in series [1] is T1, recombinant HIV (pNL4-3) heterodimeric (p66/p51) Reverse Transcriptase (Human immunodeficiency virus type 1 group M subtype B, UniProt P12497).
T1 construct: purified recombinant HIV (pNL4-3) heterodimeric (p66/p51) Reverse Transcriptase (RT); purchased
In words: reverse transcriptase assay. The format is biochemical. The protocol: For the assays listed in Table I, the integrase assay was conducted using the XpressBio HIV-1 Integrase Assay Kit according to the manufacture's protocol. The protease assay was conducted with the Anthranilyl (Abz)-HIV Protease Substrate (Bachem H-2992), a hexapeptide FRET substrate derived from the p24/p15 cleavage site of the viral gag-pol poly-protein, which allows the screening of potential HIV protease inhibitors. 1 mM Abz-Substrate was diluted with Assay Buffer to a working stock of 20 μM. A 50 μM stock HIV-1 protease (received from Sook-kyung Lee (UNC)) was diluted with Assay Buffer (50 mM HEPES, pH 6.8, 150 mM NaCl, and 1% DMSO) to a working stock of 100 nM. 2 μl 100 nM HIV-1 Protease along with 2 uL 20 μM Abz Substrate was added into each well and incubated at room temperature (avoiding light) for 1 hour before being read on an Envision plate reader (Perkin Elmer) excitation at 280 nm, emission at >435 nm. The reverse transcriptase assay utilized purified recombinant HIV (pNL4-3) heterodimeric (p66/p51) Reverse Transcriptase (RT) that was purchased from a commercially available source. The assay was performed in 96-well filter plate, where RT activity was determined by the incorporation of radiolabeled deoxyribonucleotides into the newly synthesized DNA strand. The RT reaction mixture contained in vitro transcribed viral RNA derived from the HIV-1NL4-3 5′-LTR region (position 454 to 652) and primer that is complementary to the primer binding site (PBS, nucleotide residues nucleotides 636 to 652), radiolabeled deoxyribonucleotide, dNTPs and reverse transcriptase. Briefly, the reaction was carried out in a volume of 50 μl containing 50 mM Tris HCl, pH 7.8, 50 mM KCl, 5 mM MgCl2, 1 mM DTT, 50 μM each of dATP, dCTP, dGTP, 50 nM dTTP, 1 μCi of [^3H] dTTP (70-90 Ci/mM) and 5 nM template/primer. The reaction was initiated by the addition of 10 nM RT. For compound screening, serially diluted test articles were added to the reaction followed by the addition of RT. The reaction mixture was incubated at 37° C. for 1 h, and then quenched by the addition of ice-cold trichloroacetic acid (TCA) to the final concentration of 10%. The plate was incubated at 4° C. for 1 h to precipitate the synthesized DNA, then rinsed 3-times with 10% TCA and 1 time with 70% ethanol. After addition of 25 μl scintillation fluid to completely dried wells, radioactivity is counted by MicroBeta scintillation counter. The reduction of radioactivity represents the potency of compound inhibition.

A further series relates to IIIB (Subtype B). In words: PBMC Acute Infection, IIIB. The format is cell-based, HIV. The conditions noted are these: Human immunodeficiency virus 1, isolate IIIB, subtype B, RT activity readout; for EC50: read-out: EC50; for EC90: read-out: EC90. The protocol: as §1

In the series with PBMCs (row of isolate 98US_MSC5016, subtype C), `CCc1c2c(nc3ccc(N)cc13)-c1cc3c(c(=O)n1C2)CNC(=O)[C@]3(O)CC` [Compound O5-SN, (S)-9-Amino-4,11-diethyl-4-hydroxy-1,2-dihydroquinolino[2′,3′:3,4]pyrrolo[1,2-b][2,7]naphthyridine-3,14(4H,12H)-dione] yielded a CC90 of more than 100000 nM. This compound gave a CC90 in the series with PBMCs (row of isolate IIIB, subtype B) of more than 100000 nM. Also, in series [1], the half-inhibitory concentration (IC50) is more than 100000 nM and the “activity against HIV reverse transcriptase (result in words)” value is “inactive”. In the series with IIIB (Subtype B), the EC50 came to 8 nM and the concentration for an effect of 90% (EC90) is 25 nM.

For `CCc1c2c(nc3ccc(O)cc13)-c1cc3c(c(=O)n1C2)CNC(=O)[C@]3(O)CC` [SN38-L, (S)-4,11-Diethyl-4,9-dihydroxy-1,2-dihydroquinolino[2′,3′:3,4]pyrrolo[1,2-b][2,7]naphthyridine-3,14(4H,12H)-dione], in series [1], the half-maximal inhibitory concentration (IC50) was more than 100000 nM and the “activity against HIV reverse transcriptase (result in words)” value was “inactive”. In addition, in the series with IIIB (Subtype B), the 50% effective concentration (EC50) stood at 10 nM and the EC90 worked out at 28 nM.
